# Experimental data reported in US3982931A, “N,N-di-sec.butyl-benzamide herbicides” (priority 1967, dated 1976).
# Experiments:
# [1] = tested on: oryza sativa L. (rice); test: activity on agrarian species, soil treatment one day after sowing; assay type: in vivo; settings: in vivo
# Excerpt: (§1) The infesting species and the agrarian species have been indicated in Table 1 by letters, as follows:
# P = oryza sativa L. (rice)
# (§2) Method of evaluation of the results (of tests):
# (§3) 0 = no activity and no difference with respect to the control;
# (§4) 1 slight differences with respect to the control;
# (§5) 3 = considerable activity with damages that definitely impair the further development of most of the small plants; an activity degree already useful for practical purposes;
# (§6) 4 = maximum of activity with lack of germination or total containment of the small plants in the emerging stage.
# (§7) In the case of an intermediate activity between two classes of the scale, both values are recorded with the one which corresponds to the preeminent activity preceding.
# (§8) TABLE 2 reports the activity data of other compounds that fall within the class which is the object of this invention.
# (§9) TABLE 3 reports data on the herbicidal activity against infesting herbs, while TABLE 4 reports data concerning the activity on useful species of agricultural cultivations. These tables employ the criterion explained previously. The product was spread on the soil one day after sowing, in quantities of 1, 3, 6, 8, 10, 12 and 14 kg/ha.
# [2] = tested on: vicia sativa L.; test: herbicidal activity, soil treatment one day after sowing; assay type: in vivo
# Excerpt: as §1, §2, §4, §5, §6, §7, §8
# [3] = tested on: artemisia vulgaris L.; test: as above; assay type: in vivo
# Excerpt: as §1
# B = artemisia vulgaris L.
# as §2, §4, §5, §6, §7, §8
# (§10) TABLE 3 reports data on the herbicidal activity against infesting herbs, while TABLE 4 reports data concerning the activity on useful species of agricultural cultivations. These tables employ the criterion explained previously. […]
# [4] = tested on: echinocloa crus-galli R.S.; test: as above; assay type: in vivo
# Excerpt: as §1
# D = echinocloa crus-galli R.S.
# as §2, §4, §5, §6, §7, §8, §10
# [5] = tested on: zea mais L. (corn); test: activity on agrarian species, soil treatment one day after sowing; assay type: in vivo; settings: in vivo
# Excerpt: as §1, §2, §3, §4, §5, §6, §7, §8, §9
# [6] = tested on: avena sativa (oats); test: as above; assay type: in vivo, Avena sativa L.; settings: in vivo
# Excerpt: as §1, §2, §3, §4, §5, §6, §7, §8, §9
# [7] = tested on: chenopodium album L.; test: herbicidal activity, soil treatment one day after sowing; assay type: in vivo
# Excerpt: as §1, §2, §4, §5, §6, §7, §8, §10
# [8] = tested on: amaranthus retroflexus L.; test: as above; assay type: in vivo
# Excerpt: as §1
# A = amaranthus retroflexus L.
# as §2, §4, §5, §6, §7, §8, §10
# [9] = tested on: setaria glauca L.; test: as above; assay type: in vivo
# Excerpt: as §1, §2, §4, §5, §6
# In the case of an intermediate activity between two classes of the scale, both values are recorded with the one which corresponds to the preeminent activity preceding. […]
# as §10
# [10] = tested on: phaseolus vulgaris (bean); test: activity on agrarian species, soil treatment one day after sowing; assay type: in vivo, Phaseolus vulgaris L.; settings: in vivo
# Excerpt: as §1
# I = phaseolus vulgaris (bean)
# as §2, §3, §4, §5, §6, §7, §8, §9
# [11] = tested on: pisum sativum L. (pea); test: as above; assay type: in vivo; settings: in vivo
# Excerpt: as §1
# L = pisum sativum L. (pea)
# as §2, §3, §4, §5, §6, §7, §8, §10
Compound,"activity on F, 0-4 scale ([2]; 6 kg/ha)","activity on B, 0-4 scale ([3]; 6 kg/ha)","activity on D, 0-4 scale ([4]; 6 kg/ha)","activity on C, 0-4 scale ([7]; 6 kg/ha)","activity on A, 0-4 scale ([8]; 6 kg/ha)","activity on E, 0-4 scale ([9]; 6 kg/ha)",further results
"CCC(C)N(C(=O)c1cccc(Cl)c1)C(C)CC (stereo not drawn) [PA215, 3-chloro-N,N-di-sec.butyl-benzamide]",1-2,1-2,3,1-2,1-2,3,"activity on P, 0-4 scale [1]: 0; activity on O, 0-4 scale [5]: 0; activity on G, 0-4 scale [6]: 0; activity on I, 0-4 scale [10]: 0"
"CCCCN(CCCC)C(=O)c1ccc(Cl)c(Cl)c1 [PA105, 3,4-dichloro-N,N-di-n.butyl-benzamide, reference compound]",0-1,1-2,1,1,1-2,2,"activity on F, 0-4 scale ([2]; 3 kg/ha): 0; activity on B, 0-4 scale ([3]; 3 kg/ha): 0-1; activity on D, 0-4 scale ([4]; 3 kg/ha): 0-1; activity on C, 0-4 scale ([7]; 3 kg/ha): 0-1; activity on E, 0-4 scale ([9]; 3 kg/ha): 1"
"O=C(O)c1ccc(Cl)c(Cl)c1 [3,4-dichloro-benzoic acid, reference compound]",0,0,0,0,0,0,
"CCCN(CCC)C(=O)c1cc(Cl)cc(Cl)c1Cl [PA303, 2,3,5-trichloro-N,N-di-n. propyl-benzamide, reference compound]",0-1,1,4,,3,4,"activity on P, 0-4 scale [1]: 3; activity on F, 0-4 scale ([2]; 1 kg/ha): 0; activity on F, 0-4 scale ([2]; 2 kg/ha): 0; activity on F, 0-4 scale ([2]; 4 kg/ha): 0-1; activity on B, 0-4 scale ([3]; 1 kg/ha): 1; activity on B, 0-4 scale ([3]; 2 kg/ha): 1; activity on B, 0-4 scale ([3]; 4 kg/ha): 1; activity on D, 0-4 scale ([4]; 1 kg/ha): 1-2; activity on D, 0-4 scale ([4]; 4 kg/ha): 3-4; activity on C, 0-4 scale ([7]; 1 kg/ha): 1; activity on C, 0-4 scale ([7]; 2 kg/ha): 1; activity on C, 0-4 scale ([7]; 4 kg/ha): 1-2; activity on A, 0-4 scale ([8]; 1 kg/ha): 1; activity on A, 0-4 scale ([8]; 4 kg/ha): 2-3; activity on L, 0-4 scale [11]: 1; activity on E, 0-4 scale ([9]; 1 kg/ha): 1-2; activity on E, 0-4 scale ([9]; 2 kg/ha): 3"
"CCCCN(CCCC)C(=O)c1cccc(Br)c1 [PA396, 3-bromo-N,N-di-n,butyl-benzamide, reference compound]",0,1-2,0-1,0-1,1,0,
"CCCCN(CCCC)C(=O)c1ccc(Cl)cc1Cl [PA282, 2,4-dichloro-N,N-di-n.butyl-benzamide, reference compound]",0-1,0,1,2,2,1,
"CCCCN(C(=O)c1cccc(Br)c1)C(C)CC (stereo not drawn) [PA525, 3-bromo-N,n.butyl-N-sec.butyl-benzamide]",0,0-1,3,1,1-2,3-4,
"CCC(C)N(C(=O)c1ccc(Br)c(Br)c1)C(C)CC (stereo not drawn) [PA484, 3,4-dibromo-N,N-di-sec.butyl-benzamide]",0,2-3,3-4,2,2-3,4-3,"activity on F, 0-4 scale ([2]; 4 kg/ha): 0; activity on B, 0-4 scale ([3]; 4 kg/ha): 1; activity on D, 0-4 scale ([4]; 4 kg/ha): 3; activity on C, 0-4 scale ([7]; 4 kg/ha): 1; activity on A, 0-4 scale ([8]; 4 kg/ha): 1-2; activity on E, 0-4 scale ([9]; 4 kg/ha): 3"
"CCN(CC)C(=O)c1cccc(C)c1 [PA383, 3,methyl-N,N-diethyl-benzamide, reference compound]",2,3,0-1,2,2,0-1,
"Cc1cccc(C(=O)O)c1 [PA442, 3,methyl-benzoic acid, reference compound]",0,0,0,0,1,0,
"CCCN(CCC)C(=O)c1ccc(Cl)cc1Cl [PA200, 2,4-dichloro-N,N-di-n-propyl-benzamide, reference compound]",0-1,2-3,2,2-3,3,1,
"CCC(C)N(C(=O)c1ccc(Br)c(I)c1)C(C)CC (stereo not drawn) [PA619, 3-iodo,4-bromo-N,N-di-sec.butyl-benzamide]",0,0,3,0-1,0-1,3,
"C=CCN(CC=C)C(=O)c1cccc(Br)c1 [PA499, 3-bromo-N,N-di-allyl-benzamide, reference compound]",3,3,3,3,,3,"activity on F, 0-4 scale ([2]; 4 kg/ha): 1; activity on B, 0-4 scale ([3]; 4 kg/ha): 3; activity on D, 0-4 scale ([4]; 4 kg/ha): 1; activity on C, 0-4 scale ([7]; 4 kg/ha): 2; activity on A, 0-4 scale ([8]; 4 kg/ha): 2-3; activity on E, 0-4 scale ([9]; 4 kg/ha): 2"
"CCCN(CCC)C(=O)c1cccc(C)c1 [PA384, 3,methyl-N,N-di-n.propyl-benzamide, reference compound]",1-2,2,1-2,2,1,0-1,
"CCC(C)N(C(=O)c1cc(Cl)cc(Br)c1)C(C)CC (stereo not drawn) [PA626, 3-bromo,5-chloro-N,N-di-sec.butyl-benzamide]",0,0-1,3-4,0-1,1-2,4,
